Results published in patent US20250188411A1, “METHOD FOR SELECTIVE REMOVAL OF […] PLURIPOTENT STEM CELLS” (Buddhist Tzu Chi Medical Foundation, priority 2023, published 2025).

How the values were obtained:
[1] = system: embryoid bodies derived from human iPSCs; assay: Treatment of embryoid bodies from human iPSCs (SFEB suspension, one day), morphology and trypan blue staining; assay type: cell-based; conditions: 24 hours
Procedure: (§1) Step 1: iPSCs were aggregated into suspended embryoid bodies (EBs), which is an initial step of differentiation. iPSCs were treated with 1 mg/mL Dispase II until the edges rolled up, then rinsed three times with PBS. The iPSCs were collected by a cell scraper and dispersed into cell mass with appropriate size by visual inspection of pipet. After suspended in Essential 6 medium containing RevitaCell, and the iPSCs were transferred to a sterile, non-adherent 6 cm2 culture plate for a 2-day suspension culture, with daily medium changing.
(§2) a. Drug Efficacy and Concentration Testing: n-Butylidenephthalide was diluted to different concentrations and administered to cells at final concentrations ranging from 50 to 750 μM. The types of administered cells include cultured human iPSCs, human iPSCs aggregated into SFEBs for one day, neural stem cells on day 10 of SFEB differentiation, neurons on day 25 of SFEB differentiation, and cells on day 5 of neural differentiation by the adhesion. The concentrations and treatment durations were as described in the Examples.
Cultured and collected iPSCs were aggregated into spheres using the SFEB suspension method and suspended in culture medium to simulate the three-dimensional structure of general pluripotent cell differentiation and transplantation. After only one day of suspension differentiation, the cells aggregated into structurally complete spheres (embryoid bodies).

[2] = system: dopamine neurons differentiated from human iPSCs; assay: Identification of differentiating dopamine neurons (CHSF-DA method): markers, dopamine ELISA, patch-clamp; assay type: cell-based; conditions: 100 μM on days 23 to 28 of CHSF-DA differentiation, FIGS. 8A to 8M
Procedure: 2. Dopaminergic Neuron Adherent Differentiation of Human iPSCs (CHSF-DA Differentiation Method): Human iPSCs, cultured in feeder-free environment, were subcultured at a 1:10 ratio for dopaminergic neurons differentiation. For induction, a neural induction medium composed of DMEM/F12 (2:1) and N2 supplement were used and dopaminergic precursor cell-inducing factors basic FGF (FGF-basic, as known as FGF-2 or bFGF) (10 mg/mL), SB431542 (2 μM), CHIR99021 (7.5 μM), SAG (1 μM), and LDN193189 (0.2 μM) were added in days 1 to 12 of the differentiation process. On day 13 of the differentiation process, the medium was switched to a neuron culture medium (Neurobasal medium and N2/B27 supplements), with SAG (0.5 μM) added from days 13 to 18. SAG was removed on day 18, and 100 μM of n-butylidenephthalide was added on days 23 to 28 for a total of 6 days. The cells were subsequently cultured in Neurobasal medium with N2/B27 supplements, the medium was changed every 2 days during the differentiation process with proteins and small molecules re-added.
b. Application of n-Butylidenephthalide in Dopaminergic Neuron Preparation: 100 μM of n-Butylidenephthalide was added from days 23 to 28 during the CHSF-DA differentiation process for a total of 6 days.
a. […] The slides were stored in the dark at 4° C. for subsequent analysis under a fluorescence microscope. […]

[3] = system: neural stem cells differentiated from human iPSCs; assay: Treatment of neural stem cells on day 10 of SFEB differentiation, morphology and NeuN/NF immunofluorescence; assay type: cell-based
Procedure: (§3) 3. Neural Differentiation of Human iPSCs Using the Serum-Free Embryoid Body (SFEB) Method: The differentiation of iPSCs into neural cells was performed in four steps. The first three steps involved SFEB suspension, in which suspended spheroid cells were cultured for 35 days, and the fourth step is a 3-day cell adhesion growth:
as §1
(§4) Step 2: The EBs were transferred to a 15 mL centrifuge tube for settlement at room temperature, and the EBs were cultured in suspension for 2 days by adding neural induction medium (NI medium, Gibco) after removal of the supernatant. […]
(§5) Step 4: The cells were attached to a culture plate coated with 1% basement membrane matrix or laminin/ornithine. […] The cells grow outward from the center of the colony, and after 3 days of continued culture, the cells were ready for experimentation. […]

[4] = system: neuronal cells differentiated from human iPSCs; assay: Treatment of neuronal cell spheroids on day 25 of SFEB differentiation, morphology and NeuN/NF immunofluorescence; assay type: cell-based
Procedure: as §3, §1, §4, §5

[5] = system: differentiated neurons derived from human iPSCs; assay: Calcium ion imaging of differentiated neurons after KCl and glutamic acid stimulation; assay type: cell-based; conditions: tested day 38
Procedure: d. Calcium Ion Imaging Analysis: Cells were seeded onto 10 mm diameter coverslips coated with Geltrex and cultured in NB medium supplemented with RevitaCell and Compound E for 3 days. A 1 μM solution of Fluo-4 was prepared in physiological buffer. The coverslips were incubated in the Fluo-4 solution at 37° C. for 40 minutes, followed by incubation in physiological buffer at 37° C. for 20 minutes. The coverslips were then transferred to a calcium imaging chamber for perfusion imaging. The cells were perfused with physiological buffer for 30 seconds, then switched to 60 mM KCl perfusion for one minute, followed by physiological buffer perfusion for five minutes. Subsequently, the cells were perfused with 1 mM L-glutamic acid for one minute, followed by physiological buffer perfusion for five minutes. Images were captured using a Nikon ECLIPSE Ti2-E microscope and analyzed with NIS-Elements AR software.
Three sets of cells were prepared: one set of cells cultured without n-butylidenephthalide treatment (Ctrl), another set cultured with 500 μM n-butylidenephthalide for 120 hours on day 10 of differentiation (NPC-BP500), and a third set cultured with 500 μM n-butylidenephthalide for 120 hours on day 25 of differentiation (Neuron-BP500). […]

[6] = system: undifferentiated pluripotent stem cells expressing Oct-4; assay: Oct-4 / N-cadherin immunofluorescence on day 5 of neural stem cell adhesion differentiation; assay type: cell-based, human; conditions: 50, 100 and 200 μM for 24 hours on day 5 of differentiation, FIG. 6
Procedure: 4. Neural Stem Cell Adhesion Differentiation of Human iPSCs (Neural Stem Cell Adhesion Differentiation Method): Human iPSCs, cultured in a feeder-free environment, were subcultured at a 1:10 ratio for neural stem cell differentiation. The differentiation was induced by using a neural induction medium composed of DMEM/F12 (2:1) and N2 supplement, with the addition of basic FGF (10 mg/mL), SB431542 (2 μM), and CHIR99021 (3 μM). The medium was changed every two days with proteins and small molecules re-added. Culture time for this neural stem cell adhesion differentiation is up to 7 days.
as §2
a. Immunofluorescence Staining Method: Chamber slides were surface-treated with 1% basement membrane matrix for 3 to 4 hours, and the slides were set aside after the matrix was removed. […] The slides were stored in the dark at 4° C. for subsequent analysis under a fluorescence microscope. […]

[7] = system: human induced pluripotent stem cells (iPSCs); assay: Treatment of cultured human iPSCs with n-butylidenephthalide, cell morphology and survival; assay type: cell-based; conditions: for number of human iPSCs versus control (Ctrl) and DMSO control: 100 μM
Procedure: 1. Culture of iPSCs in Essential 8 Feeder-Free Culture Medium: Human iPSCs were cultured in Essential 8 medium (Gibco) in culture dishes treated with basement membrane matrix (Matrigel). Subculture was performed when the cells reached 70% to 80% confluence, approximately 3 to 5 days. During subculture, the cells were rinsed twice with PBS until the edges began to lift, followed by treatment with a cell dissociation regent (Accutase) for 1 to 5 minutes to round up most of the cells. The cell dissociation regent was then diluted with DMEM/F12, and DMEM medium was added. The cells were scraped with even force by a cell scraper, dispersed into cell mass with appropriate size by mechanical force, and plated at an appropriate ratio (about 1:5 to 1:10) with 10 μM of Y27632 added.
as §2
Human induced pluripotent stem cells (iPSCs) were collected and cultured in Essential 8 medium without a feeder layer. After 24 hours of treatment with different concentrations of n-butylidenephthalide (100 μM, 200 μM, 500 μM, and 750 μM), the cell morphology was shown in FIG. 1A.

[8] = system: residual undifferentiated pluripotent stem cells; conditions: early treatment; cited from earlier work

CCCC=C1OC(=O)c2ccccc21 [n-butylidenephthalide]
viable cells by trypan blue staining ([1]; 200 μM): decrease in viable cells
viable cells by trypan blue staining ([1]; 500 μM): no viable cells were observed
morphology of suspended spheres (embryoid bodies) ([1]; 500 μM, FIG. 2): all dispersed and died
effect on specific protein expression and neurological function of dopamine neurons [2]: did not affect the expression of specific proteins or the neurological function of dopamine neurons
cell death or morphological changes of suspended neural stem cell spheres ([3]; 50, 100, 200 and 500 μM for 120 hours from day 10 of differentiation, FIG. 3A): no cell death or morphological changes were observed
ability of treated neural stem cells to differentiate into mature neurons (NeuN, NF) ([3]; treated from day 10, cultured until day 38, FIG. 3B): able to differentiate normally into mature neurons
damage to neuronal cell spheroids or cell death ([4]; 50, 100, 200 and 500 μM for 120 hours from day 25 of differentiation, FIG. 4B): no damage to the spheroids or cell death was observed
NeuN and NF expression and morphology of treated mature neurons ([4]; treated from day 25, cultured until day 38, FIG. 4C): exhibiting typical nerve fiber morphology
calcium ion changes after KCl and glutamic acid stimulation versus Ctrl ([5]; NPC-BP500: 500 μM for 120 hours on day 10 of differentiation): no statistically significant differences
calcium ion changes after KCl and glutamic acid stimulation versus Ctrl ([5]; Neuron-BP500: 500 μM for 120 hours on day 25 of differentiation): no statistically significant differences
proportion of undifferentiated pluripotent stem cells expressing Oct-4 [6]: decreased significantly
number of human iPSCs versus control (Ctrl) and DMSO control ([7]; 24 hours, FIG. 1A): significantly lower
number of human iPSCs versus control (Ctrl) and DMSO control ([7]; 48 hours, FIG. 1B): significantly lower
cell morphology of human iPSCs ([7]; 200 μM, 48 hours, FIG. 1B): obvious floating and cell death
adherence and survival of human iPSCs ([7]; concentrations above 500 μM, 24 hours, FIG. 1A): did not adhere or survive
survival of human iPSCs ([7]; concentrations above 500 μM, 48 hours, FIG. 1B): No cells survived

O=c1c(O)c(-c2ccc(O)c(O)c2)oc2cc(O)cc(O)c12 [quercetin]
presence of residual undifferentiated pluripotent stem cells [8]: can reduce
